# In PubChem BioAssay (NCI):
# “And” between values parts separate entries of the source, which are not always exact repeats. Equal values may be shown once.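 Following 48 hours of exposure in 96-well plates, responses at five concentrations were used to interpolate endpoints linearly. Here, GI50 denotes the concentration required for 50% inhibition of growth. The concentration for full growth arrest is given as TGI.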
# What was measured:
# Test in all cases: growth of human tumour cells (NCI), 48 h
# COLO 205 colon = tested on: COLO 205 colon
# HOP-92 NSCLC = tested on: HOP-92 NSCLC
# NCI-H23 lung = tested on: NCI-H23 lung
# NCI-H522 lung = tested on: NCI-H522 lung
# OVCAR-4 ovarian = tested on: OVCAR-4 ovarian
# SF-295 CNS = tested on: SF-295 CNS
# SK-MEL-5 melanoma = tested on: SK-MEL-5 melanoma
# SN12C renal = tested on: SN12C renal
# SR leukemia = tested on: SR leukemia
SMILES,TGI (COLO 205 colon),TGI (HOP-92 NSCLC),TGI (NCI-H23 lung),TGI (NCI-H522 lung),TGI (OVCAR-4 ovarian),TGI (SF-295 CNS),TGI (SK-MEL-5 melanoma),TGI (SN12C renal),TGI (SR leukemia),GI50 (COLO 205 colon),GI50 (HOP-92 NSCLC),GI50 (NCI-H23 lung),GI50 (NCI-H522 lung),GI50 (OVCAR-4 ovarian),GI50 (SF-295 CNS),GI50 (SK-MEL-5 melanoma),GI50 (SN12C renal),GI50 (SR leukemia)
Cc1cc(N(CCC#N)CCC#N)ccc1/C=C1\N=C(c2cc([N+](=O)[O-])ccc2Cl)N(c2cccc(Cl)c2)C1=O,> 100 µM,> 100 µM,> 100 µM,> 100 µM,> 100 µM,> 100 µM,> 100 µM,> 100 µM,> 100 µM,,,,,,,,,
CCCCCCCC(=O)OCC/C=C/C1OC1C1OC(=O)/C=C\C=C\c2nc(oc2C)/C=C(/C)CCC2OC2C1OC(=O)NC(C)=O (configuration not stated),0.193 µM,0.168 µM,0.108 µM,0.0755 µM,2.21 µM,0.0548 µM,0.0688 µM,0.554 µM,0.89 µM,0.0581 µM,0.0283 µM,0.023 µM,0.0192 µM,0.0766 µM,0.00904 µM,0.0248 µM,0.0491 µM,0.0173 µM
CC/C=C\C[C@H](F)C/C=C1/C(=O)C=C[C@@H]1C/C=C\CCCC(=O)O,12.2 µM,,20.4 µM,10.9 µM,> 32.5 µM,17.2 µM,9.18 µM,20.5 µM,7.49 µM,5.3 µM,,7.36 µM,4.58 µM,7.76 µM,7.54 µM,4.86 µM,7.01 µM,1.04 µM
COc1ccc(-c2onc(N)c2-c2cc(OC)c3c(c2)OCO3)cc1,6.86 µM,> 100 µM,> 100 µM,5.39 µM,> 96 µM,> 100 µM,> 25.6 µM,> 100 µM,> 100 µM,2.2 µM,4.98 µM,2.87 µM,1.07 µM,13.6 µM,2.32 µM,2.8 µM,4.26 µM,0.534 µM
Cc1ccc2c(c1)Sc1c(ccc3ccccc13)N2,> 100 µM,> 100 µM,> 100 µM,> 100 µM,> 100 µM,> 100 µM,> 100 µM,> 100 µM,> 100 µM,76.1 µM,7.07 µM,> 100 µM,> 100 µM,> 100 µM,15.4 µM,12.4 µM,> 100 µM,4.4 µM
COCCCNC(=O)C1C(=O)C(=O)N(CCCOC)C1=O (configuration not stated),> 100 µM,> 100 µM,> 100 µM,> 100 µM,> 100 µM,> 100 µM,> 100 µM,> 100 µM,> 100 µM,,,,,,,,,
O=C1c2cccc([N+](=O)[O-])c2C(=O)N1c1ncn[nH]1,> 100 µM,52.6 µM,> 100 µM,> 100 µM,> 100 µM,> 100 µM,> 100 µM,> 100 µM,> 100 µM,,,,,,,,,
O=C(CCc1nnc2sc(-c3ccc(Cl)cc3Cl)nn12)c1nc2ccccc2[nH]1,2.65 µM,1.86 µM,3 µM,2.18 µM,3.55 µM,5.56 µM,2.51 µM,4.22 µM,,1.09 µM,0.391 µM,0.694 µM,0.755 µM,0.639 µM,1.65 µM,1.26 µM,1.41 µM,0.301 µM
CC/C=C\C[C@@H](O)C/C=C1/C(=O)C=C[C@H]1C/C=C\CCCC(=O)OC,4.66 µM,15.2 µM,6.63 µM,3.97 µM,16.9 µM,9.27 µM,3.25 µM,19.3 µM,4 µM,1.8 µM,4.54 µM,2.4 µM,1.65 µM,4.21 µM,2.97 µM,1.77 µM,4.64 µM,0.686 µM
O=C(CCN(C(=O)O)S(=O)(=O)c1ccc(NC(=O)c2ccccc2)cc1)NC1CCCCC1,> 100 µM,> 100 µM,> 100 µM,> 100 µM,> 100 µM,> 100 µM,> 100 µM,> 100 µM,> 100 µM,,,,,,,,,
O=C(Nc1ccncc1)C(=O)c1cn(S(=O)(=O)c2cccc(F)c2)c2ccccc12,> 100 µM,,> 100 µM,15.7 µM,> 100 µM,27.5 µM,37.7 µM,> 100 µM,> 100 µM,32.4 µM,,2.43 µM,1.3 µM,5.09 µM,2.84 µM,2.83 µM,5.25 µM,0.552 µM
COc1ccc(NC(=O)CC(=O)N/N=C/c2ccc(N(CCC#N)S(C)(=O)=O)cc2)cc1,> 100 µM,,> 100 µM,> 100 µM,> 100 µM,> 100 µM,> 100 µM,> 100 µM,> 100 µM,,,,,,,,,
O=[N+]([O-])c1ccc(C=NC2CCCCC2)cc1,> 100 µM,> 100 µM,> 100 µM,,> 100 µM,> 100 µM,> 100 µM,> 100 µM,> 100 µM,,,,,,,,,
CCCC(=O)OCC1OC(n2cnc3c(=S)nc[nH]c32)C(OC(=O)CCC)C1OC(=O)CCC (configuration not stated),18.9 µM,,> 100 µM,> 100 µM,> 100 µM,> 100 µM,62.9 µM,> 100 µM,40.2 µM,4.57 µM,,5.09 µM,4.62 µM,0.802 µM,3.53 µM,5.24 µM,4.58 µM,2.02 µM
NC1=NC(c2ccccc2)CC(c2cc(Cl)ccc2O)=N1 (configuration not stated),33.7 µM,33.5 µM,29.4 µM,29 µM,35.8 µM,31 µM,,26.9 µM,36.6 µM,,,,,,,,,
NC(=O)NS(=O)(=O)c1ccc(N2N=C(C(F)(F)F)CC2c2cc(C(F)(F)F)cc(C(F)(F)F)c2)cc1 (configuration not stated),12 µM,29.3 µM,19.2 µM,,12.8 µM,,12 µM,4.51 µM,> 100 µM,2.96 µM,12.9 µM,5.32 µM,,2.9 µM,,3.07 µM,2.1 µM,3.08 µM
CS(=O)(=O)c1ccc(-n2nc(C(F)(F)F)cc2OC2CCCC2)cc1,81.7 µM,> 100 µM,,> 100 µM,> 100 µM,> 100 µM,36.2 µM,71.7 µM,47.9 µM,29 µM,50.7 µM,,45.8 µM,30.3 µM,37.4 µM,19.5 µM,25.8 µM,19.8 µM
O=C(O)C(CS)Nc1c2ccccc2nc2ccccc12 (configuration not stated),> 100 µM,> 100 µM,> 100 µM,> 100 µM,47.1 µM,> 100 µM,,> 100 µM,> 100 µM,,,,,,,,,
COc1ccc2c(c1)[n+](=O)c(C(=O)C/C(=N/OCCCc1ccccc1)C(=O)NC13CC4CC(CC(C4)C1)C3)c(C)n2[O-],> 100 µM,,> 100 µM,> 100 µM,> 100 µM,> 100 µM,> 100 µM,> 100 µM,> 100 µM,,,,,,,,,
NC12CC3CC(C1)CC(C(=O)O)(C3)C2,,> 100 µM,> 100 µM,> 100 µM,> 100 µM,> 100 µM,> 100 µM,> 100 µM,> 100 µM,,,,,,,,,
CC1(C)OC2=C(CC1Br)C(=O)C(=O)c1ccccc12 (configuration not stated),3.39 µM,3.97 µM,3.75 µM,3.03 µM,3.03 µM,,2.89 µM,3.75 µM,7.44 µM,1.89 µM,2.33 µM,1.66 µM,1.62 µM,1.67 µM,,1.53 µM,1.84 µM,3.97 µM
COc1cc(Nc2nc3ccccc3nc2-c2cccs2)cc(OC)c1OC,> 10 µM,83.9 µM,> 100 µM,,,> 100 µM,,> 100 µM,> 100 µM,,,,,,,,,
O=C1C(Cl)=C(NCCN2CCOCC2)C(=O)c2ncccc21,3.43 µM,3.84 µM and 5.47 µM,3.75 µM and 3.52 µM,,3.88 µM,3.33 µM and 3.3 µM,2.32 µM and 3.16 µM,3.2 µM and 3.84 µM,5.61 µM,1.61 µM,,1.25 µM,,1.85 µM,,1.72 µM,1.93 µM,2.01 µM
O=C1c2ccccc2C(=O)N1CCc1ncc[nH]1,> 100 µM,> 100 µM,> 100 µM,> 100 µM,,> 100 µM,> 100 µM,> 100 µM,> 100 µM,,,,,,,,,
Cc1ccc(-c2nc3nc(-c4ccccc4)nc(N4CCCNCC4)c3o2)cc1,3.66 µM,3.01 µM,3.8 µM,3.39 µM,3.09 µM,3.33 µM,,3.06 µM,0.554 µM,1.96 µM,1.44 µM,1.89 µM,1.73 µM,1.59 µM,1.77 µM,,1.56 µM,0.222 µM
CC(SC(=S)N1CCOCC1)c1cc2oc(=O)n(C)c2cc1Cl (configuration not stated),> 100 µM,> 10 µM,> 100 µM,,> 100 µM,> 100 µM,> 100 µM,> 100 µM,> 100 µM,,,,,,,,,
CNC(=O)C1CCc2nnc(-c3ccccc3)n21 (configuration not stated),> 100 µM,,,> 100 µM,> 100 µM,,> 100 µM,> 100 µM,> 100 µM,,,,,,,,,
COc1cc(C(=O)CBr)c(OC)cc1C,> 100 µM,,> 100 µM,> 100 µM,,> 100 µM,> 100 µM,> 100 µM,> 100 µM,,,,,,,,,
